IC50 and inhibition data for eleven compounds are collected here from publication PMC5923399 (Marine Drugs, 2018).

Where a SMILES comes first, the peptide text is derived from it. Bridges are numbered along the chain shown (N, C = ends).

One assay has as its target T1, rat α3β2 nAChRs (Rattus norvegicus, UniProt P04757+P12390).
T1 construct: expressed in transfected cells; host or cells: Xenopus oocytes (cRNA injection)
As to the kind of experiment: cell-based.

For a further assay, the target named is T2, GABABR-coupled Cav2.2 (Homo sapiens, UniProt O75899+Q9UBS5).
T2 construct: expressed in transfected cells; host or cells: HEK293T cells, transient transfection; GABAB subunit plasmids from David J. Adams, University of Wollongong
As to the kind of experiment: cell-based. Further details: species or system human GABABR and rat Cav2.2.

In a further assay the test system is hα4β2 nAChR. The note with it: cited from earlier work.
For another assay, the system named is hα3β2 nAChR. As to conditions: cited from earlier work.
Another assay deals with hα3β4 nAChR. The note with it: cited from earlier work.
A further assay concerns the target T3, α4β2 nAChR (Rattus norvegicus, UniProt P09483+P12390).
T3 construct: expressed in transfected cells; host or cells: Xenopus oocytes (cRNA injection)
The note with it: cited from earlier work.

The target of the next assay is T4, α7 nAChR (Rattus norvegicus, UniProt Q05941).
T4 construct: expressed in transfected cells; host or cells: Xenopus oocytes (cRNA injection)
As to conditions: cited from earlier work.

A further assay concerns α3β2 nAChR. As to conditions: cited from earlier work.
In the next assay the target is T5, α9α10 nAChR (Rattus norvegicus, UniProt P43144+Q9JLB5).
T5 construct: expressed in transfected cells; host or cells: Xenopus oocytes (cRNA injection)
The note with it: read-out: IC50 α9α10; cited from earlier work.

As usually defined, the IC50 is the midpoint of a concentration-inhibition curve. Usually inhibition stands for the share of the control response that was lost under treatment.

T1 sequence (P04757 26-499 limits assumed): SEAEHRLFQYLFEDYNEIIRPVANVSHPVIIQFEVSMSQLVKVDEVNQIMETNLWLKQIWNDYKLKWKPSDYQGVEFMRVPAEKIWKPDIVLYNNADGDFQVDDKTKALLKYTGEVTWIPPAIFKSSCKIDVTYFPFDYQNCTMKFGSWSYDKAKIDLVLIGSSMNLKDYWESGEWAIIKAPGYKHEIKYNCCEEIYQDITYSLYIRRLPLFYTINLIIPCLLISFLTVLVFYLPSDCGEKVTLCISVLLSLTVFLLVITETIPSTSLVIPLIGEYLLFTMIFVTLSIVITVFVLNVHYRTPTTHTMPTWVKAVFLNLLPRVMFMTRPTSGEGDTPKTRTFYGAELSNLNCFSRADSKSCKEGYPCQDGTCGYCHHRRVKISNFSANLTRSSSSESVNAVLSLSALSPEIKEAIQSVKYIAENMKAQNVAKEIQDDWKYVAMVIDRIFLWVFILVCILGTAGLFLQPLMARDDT
T1 sequence (P12390 25-500 limits assumed): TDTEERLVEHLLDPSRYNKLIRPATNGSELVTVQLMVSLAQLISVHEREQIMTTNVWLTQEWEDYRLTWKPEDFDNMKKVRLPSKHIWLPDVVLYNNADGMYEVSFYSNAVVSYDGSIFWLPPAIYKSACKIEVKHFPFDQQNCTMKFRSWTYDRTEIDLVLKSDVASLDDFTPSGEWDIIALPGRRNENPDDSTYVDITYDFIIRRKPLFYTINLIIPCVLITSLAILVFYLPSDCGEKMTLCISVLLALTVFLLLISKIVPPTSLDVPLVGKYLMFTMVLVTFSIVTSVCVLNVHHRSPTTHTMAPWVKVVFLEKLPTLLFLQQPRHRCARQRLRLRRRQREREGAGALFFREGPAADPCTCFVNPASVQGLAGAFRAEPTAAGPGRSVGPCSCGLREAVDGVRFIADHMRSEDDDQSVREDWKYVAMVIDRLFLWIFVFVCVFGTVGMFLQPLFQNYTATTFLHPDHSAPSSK
T2 sequence (Q9UBS5 15-961 limits assumed): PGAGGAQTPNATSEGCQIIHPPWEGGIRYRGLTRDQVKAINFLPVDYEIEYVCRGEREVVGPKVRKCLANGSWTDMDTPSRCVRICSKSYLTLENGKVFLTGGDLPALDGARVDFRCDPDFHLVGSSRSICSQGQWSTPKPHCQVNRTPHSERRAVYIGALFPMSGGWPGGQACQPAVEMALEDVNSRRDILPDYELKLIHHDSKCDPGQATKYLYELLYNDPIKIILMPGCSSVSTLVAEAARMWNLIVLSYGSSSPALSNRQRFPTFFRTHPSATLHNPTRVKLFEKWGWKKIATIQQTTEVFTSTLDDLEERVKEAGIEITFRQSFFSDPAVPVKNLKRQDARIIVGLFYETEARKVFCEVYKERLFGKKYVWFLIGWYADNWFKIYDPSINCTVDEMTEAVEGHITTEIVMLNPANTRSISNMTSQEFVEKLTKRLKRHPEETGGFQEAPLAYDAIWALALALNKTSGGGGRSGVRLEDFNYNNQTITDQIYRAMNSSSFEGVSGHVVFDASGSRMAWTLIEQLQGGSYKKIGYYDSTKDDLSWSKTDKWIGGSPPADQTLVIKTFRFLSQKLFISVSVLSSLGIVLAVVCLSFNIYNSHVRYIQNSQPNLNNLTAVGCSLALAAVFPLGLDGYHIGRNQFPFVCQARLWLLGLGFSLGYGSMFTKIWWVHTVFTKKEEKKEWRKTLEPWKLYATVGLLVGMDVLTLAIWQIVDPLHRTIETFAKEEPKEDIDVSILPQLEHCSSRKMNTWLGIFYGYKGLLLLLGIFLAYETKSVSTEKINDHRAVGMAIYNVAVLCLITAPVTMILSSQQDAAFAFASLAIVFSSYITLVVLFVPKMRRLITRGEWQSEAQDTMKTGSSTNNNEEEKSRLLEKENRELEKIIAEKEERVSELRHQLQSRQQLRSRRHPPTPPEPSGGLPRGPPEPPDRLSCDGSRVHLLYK
T2 sequence (O75899 42-941): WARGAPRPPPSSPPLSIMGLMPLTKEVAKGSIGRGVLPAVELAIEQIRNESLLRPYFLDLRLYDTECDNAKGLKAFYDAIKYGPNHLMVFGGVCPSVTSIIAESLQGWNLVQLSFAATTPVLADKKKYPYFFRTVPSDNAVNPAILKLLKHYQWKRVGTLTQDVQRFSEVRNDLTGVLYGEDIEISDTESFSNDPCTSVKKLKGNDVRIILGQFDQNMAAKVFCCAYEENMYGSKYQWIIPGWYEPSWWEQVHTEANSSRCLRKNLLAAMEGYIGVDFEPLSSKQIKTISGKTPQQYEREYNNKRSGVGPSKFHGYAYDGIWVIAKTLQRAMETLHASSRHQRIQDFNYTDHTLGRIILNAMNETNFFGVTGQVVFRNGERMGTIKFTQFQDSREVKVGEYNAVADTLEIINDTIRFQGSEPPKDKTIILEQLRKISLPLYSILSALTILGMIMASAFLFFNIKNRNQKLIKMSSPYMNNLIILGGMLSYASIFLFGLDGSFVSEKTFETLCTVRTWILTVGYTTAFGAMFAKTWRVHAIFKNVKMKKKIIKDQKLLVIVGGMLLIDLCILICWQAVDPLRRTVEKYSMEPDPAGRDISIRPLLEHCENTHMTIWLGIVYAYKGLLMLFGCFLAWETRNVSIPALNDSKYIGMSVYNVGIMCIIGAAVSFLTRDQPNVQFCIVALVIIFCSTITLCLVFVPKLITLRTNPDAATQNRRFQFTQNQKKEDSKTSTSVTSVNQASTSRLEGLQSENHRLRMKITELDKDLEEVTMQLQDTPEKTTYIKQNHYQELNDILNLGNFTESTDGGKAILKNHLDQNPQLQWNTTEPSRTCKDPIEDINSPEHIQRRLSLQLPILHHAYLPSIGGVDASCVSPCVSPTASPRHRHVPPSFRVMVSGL
T5 sequence (P43144 26-479 limits assumed): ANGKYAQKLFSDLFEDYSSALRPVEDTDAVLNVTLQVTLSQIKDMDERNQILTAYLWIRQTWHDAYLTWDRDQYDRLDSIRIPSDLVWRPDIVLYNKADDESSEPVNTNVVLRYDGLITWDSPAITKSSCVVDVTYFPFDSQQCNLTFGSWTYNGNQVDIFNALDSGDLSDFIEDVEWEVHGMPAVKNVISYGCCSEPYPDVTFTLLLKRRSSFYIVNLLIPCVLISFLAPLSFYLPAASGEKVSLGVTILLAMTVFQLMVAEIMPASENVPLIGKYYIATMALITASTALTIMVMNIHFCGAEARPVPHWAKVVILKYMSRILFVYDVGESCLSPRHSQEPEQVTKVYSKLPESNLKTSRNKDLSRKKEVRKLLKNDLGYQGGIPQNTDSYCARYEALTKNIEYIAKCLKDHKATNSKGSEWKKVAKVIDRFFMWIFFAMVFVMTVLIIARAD
T5 sequence (Q9JLB5 25-447 limits assumed): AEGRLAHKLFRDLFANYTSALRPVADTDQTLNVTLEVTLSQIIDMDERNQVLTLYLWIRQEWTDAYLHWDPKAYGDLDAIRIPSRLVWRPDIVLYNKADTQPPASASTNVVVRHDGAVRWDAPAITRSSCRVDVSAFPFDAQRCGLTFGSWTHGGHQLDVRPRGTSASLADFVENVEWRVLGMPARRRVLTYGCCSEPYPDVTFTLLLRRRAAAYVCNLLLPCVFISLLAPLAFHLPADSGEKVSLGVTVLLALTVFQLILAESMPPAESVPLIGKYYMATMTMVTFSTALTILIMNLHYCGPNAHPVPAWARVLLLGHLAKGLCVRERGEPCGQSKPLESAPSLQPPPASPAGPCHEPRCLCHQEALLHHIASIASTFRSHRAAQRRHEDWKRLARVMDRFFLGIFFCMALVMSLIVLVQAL

With `C[C@@H]1NC(=O)[C@@H]2CCCN2C(=O)[C@H](Cc2c[nH]cn2)NC(=O)[C@H](CO)NC(=O)[C@@H]2CSSC[C@H](NC1=O)C(=O)N[C@@H](CO)C(=O)NCC(=O)N[C@@H](CC(N)=O)C(=O)N[C@@H](CC(N)=O)C(=O)N1CCC[C@H]1C(=O)N[C@@H](Cc1ccc(O)cc1)C(=O)N[C@@H](Cc1ccccc1)C(=O)N[C@H](C(N)=O)CSSC[C@H](NC(=O)CN)C(=O)N2` [Lt1.3-I] (H-GCCSHPACSGNNPYFC-NH2; disulfide 2-16, 3-8), the figures for the IC50 against rat α3β2 nAChRs and against GABABR-coupled Cav2.2 were > 10000 nM and 33.9 nM, respectively. Also, on GABABR-coupled Cav2.2 (HEK-293T, read-out: inhibition of peak current amplitude, SEM), the inhibition at 0.1 µM was 28 ± 3.8%.
For `C[C@@H]1NC(=O)CNC(=O)[C@H](CO)NC(=O)[C@@H]2CSSC[C@H](NC(=O)CN)C(=O)N[C@@H](CSSC[C@@H](C(N)=O)NC(=O)[C@H](Cc3ccccc3)NC(=O)[C@H](Cc3ccc(O)cc3)NC(=O)[C@@H]3CCCN3C(=O)[C@H](CC(N)=O)NC1=O)C(=O)N[C@@H](CO)C(=O)N[C@@H](Cc1c[nH]cn1)C(=O)N1CCC[C@H]1C(=O)N[C@@H](C)C(=O)N2` [Lt1.3[N11A]] (H-GCCSHPACSGANPYFC-NH2; disulfide 2-8, 3-16; N-terminus assumed), the 50% inhibitory concentration (IC50) against rat α3β2 nAChRs was > 10000 nM.
On the same count and under the same terms, as for `C[C@@H]1NC(=O)[C@@H]2CSSC[C@H](NC(=O)CN)C(=O)N[C@@H](CSSC[C@@H](C(N)=O)NC(=O)[C@H](Cc3ccccc3)NC(=O)[C@H](Cc3ccc(O)cc3)NC(=O)[C@@H]3CCCN3C(=O)[C@H](CC(N)=O)NC(=O)[C@H](CC(N)=O)NC(=O)CNC1=O)C(=O)N[C@@H](CO)C(=O)N[C@@H](Cc1c[nH]cn1)C(=O)N1CCC[C@H]1C(=O)N[C@@H](C)C(=O)N2` [Lt1.3[S9A]], the figure is 35.4 nM.
Take “G CC SHPA C AGNNQHI C * (bicyclic or more) [GIC, α4/7-CTx targeting nAChR α3β2]”: the half-maximal inhibitory concentration (IC50) with hα4β2 nAChR was 309 nM; in the assay on hα3β2 nAChR, 1.1 nM; with hα3β4 nAChR, 755 nM.
On to “G CC SNPV C HLEHSNL C * (bicyclic or more) (GCCSNPVCHLEHSNLC) [MII, α4/7-CTx targeting nAChR α3β2]”, for which the IC50 is 548 nM in the assay with α4β2 nAChR and ~200 nM in the assay with α7 nAChR.
In the case of “G CC SNPV C HLEHSNL C * (bicyclic or more) [MII, α4/7-CTx targeting nAChR α3β2]”, the IC50 in the assay with α3β2 nAChR is 0.5 nM.
In the case of “GG CC SHPA C AANNQD(sTy) C * (bicyclic or more) [AnIB, α4/7-CTx targeting nAChR α3β2]”, in the assay on α3β2 nAChR, the half-maximal inhibitory concentration (IC50) is 0.3 nM.
Turning to “IRDE CC SNPA C RVNNOHV C RRR (bicyclic or more) [ArIA, α4/7-CTx targeting nAChR α3β2]”, in the assay on α3β2 nAChR, the IC50 was 18 nM.
Regarding “PE CC THPA C HVSHPEL C * (bicyclic or more) [Mr1.7, α4/7-CTx targeting nAChR α3β2]”, the results for the IC50 at α9α10 nAChR and in the assay on α3β2 nAChR were 188 nM and 53.1 nM, respectively.
As to “SG CC SNPA C RVNNPNI C * (bicyclic or more) (SGCCSNPACRVNNPNIC) [LsIA, α4/7-CTx targeting nAChR α3β2]”, the concentration for half-maximal inhibition (IC50) in the assay with α7 nAChR is 10.1 nM.
In the case of “SG CC SNPA C RVNNPNI C * (bicyclic or more) [LsIA, α4/7-CTx targeting nAChR α3β2]”, the IC50 with α3β2 nAChR is 10.3 nM.
